# Where two headings read alike, the source gives them in different places.
# How the values were obtained:
# [1] = Pharmacokinetics studies in mice (plasma); type: in vivo
# Description: Mice were fasted for 12 h with access to water before drug administration. N-Hydap was dissolved in a solution containing 50% methanol and water. Before administration, the drug was diluted with PBS to achieve concentrations of 5 mg/kg and 2 mg/kg for gastric gavage and tail vein administration, respectively. Blood samples (120 μL) were collected from the orbital venous plexus at 2, 5, 10, 15, 30, 60, 90, 120, 180, and 240 min after N-hydap administration. The blood samples were collected into heparinized micro-centrifuge tubes and immediately centrifuged at 8000 rpm for 5 min at 4 °C. Plasma samples were prepared by adding an internal standard (IS) solution, Tes to the samples, followed by vortexing. The mixtures were then centrifuged at 4 °C and 13,000 rpm for 15 min. The resulting supernatant was dried under vacuum for 3–4 h, and the dry powder was reconstituted with a solution of 50% methanol and water. Finally, the plasma samples were analyzed using LC–MS, following the previously described method.
# DAS 2.0 was used to calculate pharmacokinetic parameters using the standard non-compartmental method. All results were presented as mean ± standard deviation and significant differences were analyzed using One-way ANOVA by GraphPad Prism 8. Statistical significance was defined as p < 0.05.
# [2] = test system: Cyp1a2; test: Real-time PCR mRNA level after 7 days gavage: Cyp1a2; type: in vivo; conditions: mice, 2, 5, 10 mg/kg p.o. 7 days; kidneys
# Description: Mice were randomly divided into four groups, with eight animals in each group. The mice received oral pretreatment with N-hydap for 7 days at doses of 2, 5, and 10 mg/kg/day, which were considered as the low dose, medium dose, and high dose, respectively. Correspondingly, the control group received PBS. On the 8th day, the liver and kidneys were removed, and organs from eight mice per group were combined to prepare MLMs and MKMs using the detailed procedures above. Subsequently, we determined the activity of CYP and UGT enzymes by specific substrate metabolized with MLMs (0.5 mg/mL) and MKMs (0.2 mg/mL) in vitro. […] In the ex vivo experiments, the activity of enzymes was measured by quantifying the production of various metabolites (nM/mg protein/min). […] The measurements were performed using multiple reaction monitoring (MRM) transitions, which are specific mass spectrometry transitions used for quantification. […]
# (§1) Total RNA from liver and kidney samples taken after 7 days of N-hydap gavage was extracted using the Animal Total RNA Isolation Kit (Foregene, Chengdu, Sichuan, China) following the manufacturer’s instructions. The concentrations of total RNA were determined by a nucleic acid concentration tester at 260/280 nm. […]
# [3] = test system: Cyp2d22; test: Real-time PCR mRNA level after 7 days gavage: Cyp2d22 (human homolog CYP2D6); type: in vivo, mice; set-up: key to CYP2D6 mNA expression: ↑: up-regulation; ↓: down-regulation; –: no change
# Description: Mice were randomly divided into four groups, with eight animals in each group. The mice received oral pretreatment with N-hydap for 7 days at doses of 2, 5, and 10 mg/kg/day, which were considered as the low dose, medium dose, and high dose, respectively. Correspondingly, the control group received PBS. On the 8th day, the liver and kidneys were removed, and organs from eight mice per group were combined to prepare MLMs and MKMs using the detailed procedures above. Subsequently, we determined the activity of CYP and UGT enzymes by specific substrate metabolized with MLMs (0.5 mg/mL) and MKMs (0.2 mg/mL) in vitro. Specifically, the following selective substrates were used for the respective enzymes: PH (1 μM) for CYP1A2, DIC (1 μM) for CYP2C9, MP (90 μM) for CYP2C19, DM (1 μM) for CYP2D6, CZX (10 μM) for CYP2E1, Tes (1 μM) for CYP3A4, SN38 (1 μM) for UGT1A1, CACD (100 μM) for UGT1A3, Sero (20 μM) for UGT1A6, and Prop (1 μM) for UGT1A9. All substrates were dissolved in methanol or DMSO. The incubation procedure was carried out as mentioned above, and the reaction was terminated with VER (20 ng/mL) in ESI+ mode and CLP (200 ng/mL) in ESI− mode. In the ex vivo experiments, the activity of enzymes was measured by quantifying the production of various metabolites (nM/mg protein/min). The metabolites and their corresponding enzymes are as follows: APAP from PH, 4-OH-DIC from DIC, 4-OH-MP from MP, DXO from DM, 6-OH-CZX from CZX, 6-OH-Tes from Tes, SN38-G from SN38, CACD-G from CACD, Sero-G from Sero, Prop-G from Prop. The measurements were performed using multiple reaction monitoring (MRM) transitions, which are specific mass spectrometry transitions used for quantification. […]
# as §1
# [4] = mouse, plasma, iv, mice, tail vein injection 2 mg/kg
# [5] = mouse, plasma, mice, oral administration 5 mg/kg
structure (smiles),measurement,setting,value
"CC1CCC2C(C=CC(C)C2C(=O)c2c(O)c(C3(O)CCC(O)C4OC43)cn(O)c2=O)C1 (centres unmarked) [N-hydap, N-Hydroxyapiosporamide]","CL, experimental results",[1]; Table 4 experimental column,High clearance
same,CLz/F,"[1]; mice, tail vein injection 2 mg/kg",31 ± 1 mL/min/kg
same,AUC(0-t),[1]; [4],2.36 µM·h
same,Cmax,[1]; [4],4.79 ± 0.726 µM
same,Tmax,[1]; [4],3 min
same,half-life,"[1]; mouse, plasma, iv, mice, tail vein injection 2 mg/kg, read-out: t1/2z",61.2 ± 14.2 min
same,half-life,"[1]; mouse, plasma, Table 4 experimental column, read-out: T1/2, experimental results",< 60 min
same,bioavailability,"[1]; mouse, plasma, mice, oral 5 mg/kg vs tail vein 2 mg/kg, read-out: F (oral bioavailability)",24%
same,AUC(0-t),[1]; [5],1.41 µM·h
same,Cmax,[1]; [5],2.06 ± 0.951 µM
same,Tmax,[1]; [5],15 min
same,CL/F,"[1]; mouse, plasma, mice, oral administration 5 mg/kg, read-out: CLz/F",134 ± 39 mL/min/kg
same,half-life,"[1]; mouse, plasma, mice, oral administration 5 mg/kg, read-out: t1/2z",57.6 ± 12.7 min
same,decrease of mRNA levels of Cyp1a2,[2],48%
same,CYP2D6 mNA expression,[3]; Kidney,–
same,CYP2D6 mNA expression,[3]; Liver,–
same,mRNA levels of Cyp2d22,"[3]; mice, 2, 5, 10 mg/kg p.o. 7 days",No significant changes

# Source: paper PMC11109052, “Metabolism characterization and toxicity of N-hydap, a marine candidate drug for lung cancer therapy by LC–MS method” (Natural Products and Bioprospecting, 2024)
